Assay type in all cases: cell-based
One data set has as its system NF-κB. The data set can be described thus: EMSA of NF-κB DNA-binding activity in primary human astroglia. Conditions: 1 μM oligonucleotide 40 h; 1 h of stimulation. A general note: In EMSA bound probe runs differently from free probe, usually more slowly.
In data set [1] the test system is primary human neurons. Nature of the data set: MTT metabolism of neurons in astrocyte-neuron trans-well. To be noted: neurons pretreated with oligonucleotide; 18 h of stimulation. As to the method:
(§1) Primary human astrocytes were grown to confluency on inserts. After 24 h of stimulation by the combination of Aβ (1 μM) and IL-Iβ (10 ng/ml), inserts were washed thrice with HBSS and then placed onto the wells containing primary human neurons. Therefore, in this trans-well model, although neurons and astrocytes face each other, they are separable and the effect of soluble factors released from activated astrocytes on neurons can be studied allowing analysis of neuronal and glial populations separately.
Mitochondrial activity was measured with the 3-(4,5-dimethylthiazol-2-yl)-2,5-diphenyltetrazolium bromide (MTT) assay (Sigma). The cells were grown on 24-well culture plates with 500 μl of medium and treated with various reagents according to the experimental design. At the end of the treatment period, 300 μl of culture medium were removed from each well, and 20 μl of MTT solution (5 mg/ml) were added and incubated for 1 h.
(§2) Primary human neurons were incubated with antisense (ASO) and scrambled oligonucleotides (ScO) against N-SMase (A) and A-SMase (FIG. 2B). After 48 h, neurons were analyzed for protein expression of N-SMase and A-SMase. In FIG. 2C, primary human astrocytes seeded in inserts were stimulated by the combination of Aβ and IL-1β as described above. […] After 6 h of treatment with activated astrocytes, apoptotic events in neurons were detected by TUNEL. In FIG. 2D, TUNEL-positive cells were counted manually in four different images of each of three coverslips by three individuals blinded to the experiment. […] Values obtained from the control group served as 100%, and data obtained in other groups were calculated as percent of control accordingly. […]
In FIGS. 3A-3E, primary human astrocytes seeded in inserts were stimulated by the combination of Aβ and IL-Iβ as described above. […] In FIG. 3A, after 1 h, activity of N-SMase was measured in total cell extracts of neurons as described above. […] Values obtained from the control group served as 100%, and data obtained in other groups were calculated as percent of control accordingly.

The subject of a further data set is iNOS. Nature of the data set: iNOS mRNA expression (RT-PCR, real-time PCR) in activated primary human astrocytes. Conditions: oligonucleotide 40 h, then 6 h of stimulation. As to the method: (§3) Total RNA was isolated from human primary astrocytes using RNA-Easy Qiagen kit following manufactures protocol. To remove any contaminating genomic DNA, total RNA was digested with DNase. Semi-quantitative RT-PCR was carried out as described earlier using oligo (dT) 12-18 as primer and MMLV reverse transcriptase (Clontech) in a 20-μl reaction mixture. The resulting cDNA was appropriately diluted, and diluted cDNA was amplified using Titanium Taq polymerase and the following primers for human proinflammatory genes: […]
It was performed using the ABI-Prism7700 sequence detection system (Applied Biosystems, Foster City, Calif.) using TaqMan Universal Master Mix and optimized concentrations of FAM-labeled probe, forward and reverse primers (Applied Biosystems) as described earlier. […] Data were processed by the ABI Sequence Detection System 1.6 software and analyzed by ANOVA.
Cells pretreated with ASO and ScO against N-SMase and A-SMase for 40 h were stimulated with (Aβ+IL-1β) under serum-free condition. After 24 h of stimulation, the concentration of nitrite was measured in supernatants (FIG. 4A) by Griess reagent. […] After 6 h, the expression of iNOS mRNA was analyzed by both semi-quantitative RT-PCR (C) and quantitative real-time PCR (FIG. 4D). The expression of TNF-a, IL-6 and IL-Iβ mRNAs were analyzed by semi-quantitative RT-PCR (FIG. 4E). […]
In general terms: Real-time PCR tracks product formation cycle by cycle.

Data set [2] relates to primary human neurons. The data set can be described thus: TUNEL apoptosis of neurons challenged by (fibrillar Aβ+IL-1β)-activated astrocytes, astrocyte-neuron trans-well. To be noted: neurons pretreated 40 h with 1 μM oligonucleotide; 6 h with (fibrillar Aβ+IL-1β)-activated astrocytes. As to the method:
as §1
Fragmented DNA was detected in situ by the terminal deoxynucleotidyltransferase-mediated binding of 3′-OH ends of DNA fragments generated in response to fibrillar Aβ1-42, using a commercially available kit (TdT FragEL™) from Calbiochem. […]
as §2, with “A-SMase.” for “A-SMase. In FIG. 2C, primary human astrocytes seeded in inserts were stimulated by the combination of Aβ and IL-1β as described above.”

The next data set relates to primary human astroglia. Nature of the data set: NO synthesis (nitrite, Griess reagent) in primary human astroglia. To be noted: astroglia pretreated 40 h with oligonucleotide; nitrite after 24 h of stimulation. How it is done:
Synthesis of NO was determined by assay of culture supernatants for nitrite, a stable reaction product of NO with molecular oxygen, using Griess reagent as described.
(§4) After 24 h of stimulation, the concentration of nitrite was measured in supernatants (FIG. 4A) by Griess reagent. […] Cells were treated with ASO/ScO for 40 h followed by stimulation with the combination of fibrillar Aβ and IL-Iβ as above. After 6 h, the expression of iNOS mRNA was analyzed by both semi-quantitative RT-PCR (C) and quantitative real-time PCR (FIG. 4D). The expression of TNF-a, IL-6 and IL-Iβ mRNAs were analyzed by semi-quantitative RT-PCR (FIG. 4E). Results are mean±SD of three different experiments. ^ap<0.001 vs control; ^bp<0.001 vs (Aβ+IL-Iβ).
Background: The Griess reaction detects nitrite, a stable product of nitric oxide.

The test system of data set [3] is TNF-α, IL-1β and IL-6 mRNAs. The data set can be described thus: TNF-α, IL-1β and IL-6 mRNA expression (RT-PCR) in activated primary human astroglia. Conditions: oligonucleotide 40 h, then 6 h of stimulation. As to the method: as §3
as §4, with “Cells pretreated with ASO and ScO against N-SMase and A-SMase for 40 h were stimulated with (Aβ+IL-1β) under serum-free condition. After 24” for “After 24”

Turning to “5′- CAGCGAGCCCGTCCACCAGCC -3′ (DNA, all phosphorothioate, methylation of C not given here) [ASO against N-SMase, ID; NO.: 12]”, the “(Aβ+IL-1β)-induced DNA-binding activity of NF-κB” value with NF-κB was “suppressed”. Besides, the “activated astroglia-mediated loss of MTT metabolism” value in the data set with primary human neurons [1] is recorded as “effectively prevented”. In addition, the “(Aβ+IL-1β)-induced expression of iNOS mRNA” value with iNOS was “strongly inhibited”. Further, the “protection of neurons from activated astrocyte-induced apoptosis (TUNEL)” value in the data set with primary human neurons [2] is “markedly protected”. For the same substance, the “(Aβ+IL-1β)-induced production of NO” value in the data set on primary human astroglia is “markedly abrogated”. For the same substance, the “(Aβ+IL-1β)-induced expression of TNF-α, IL-1β and IL-6 mRNAs” value in data set [3] is reported as “abrogated”.
